Reference: US20250092081A1, “USE OF GLYCOSYLTRASNFERASE INHIBITORS FOR TREATING CANCER” (CALIFORNIA INSTITUTE OF TECHNOLOGY, priority 2020, published 2025)
≈ marks a conversion by molar mass, not a printed value.

Columns and labels:
[1] = tested on: C. difficile ATCC43596; experiment: Minimum inhibitory concentration assay; details: for C. difficile ATCC43596 MIC: 48 h, 37° C., anaerobic
[2] = tested on: C. difficile spores; experiment: Spore viability testing; type: cell-based; details: for Inhibition of C. difficile spore germination: x5 MIC; for Viability of C. difficile spores: x2 MIC, 24 hours, CFU on taurocholate agar
[3] = Cytotoxicity MTT assay, LoVo; type: cell-based; details: human, LoVo cells
Procedure: (§1) Selected molecules were tested for cytotoxicity (IC50) in cancer and healthy cells via a MTT colorimetric assay.
(§2) Each cell was cultured in recommended medium by ATCC, and the IC50 data were obtained with each cell line.

[4] = Cytotoxicity MTT assay, KB; type: cell-based; details: human, KB cells
Procedure: as §1, §2

[5] = Cytotoxicity MTT assay, HPAF-II; type: cell-based; details: human, HPAF-II cells
Procedure: as §1, §2

[6] = tested on: AsPc-1 (pancreatic cancer) cells; experiment: Synergistic assay (checkerboard) on AsPc-1 cells; type: cell-based
Procedure: Synergistic Assay. The synergistic or antagonistic activities of 11 with other cancer drugs on AsPc-1 (pancreatic cancer) cells were assessed in vitro via micro dilution broth checkerboard technique previously reported. The FIC index was calculated according to the following equation. ΣFIC=FICA+FICB=CA/MICA+CB/MICB where MICA and MICB are MIC of drugs A and B, CA and CB are the concentrations of drugs A and B used in combination. In these interaction studies, ΣFIC of less than 0.5 represents synergistic activity.
These experiments were performed in the same manner as those of Example 8.

[7] = Cytotoxicity MTT assay, L12210; type: cell-based; details: mouse, L12210 cells
Procedure: as §1, §2

[8] = Cytotoxicity MTT assay, MDA-MB-435S; type: cell-based; details: human, MDA-MB-435S cells
Procedure: as §1, §2

[9] = Cytotoxicity MTT assay, AsPc-1; type: cell-based; details: human, AsPc-1 cells
Procedure: as §1, §2

[10] = Cytotoxicity MTT assay, Panc-1; type: cell-based; details: human, Panc-1 cells
Procedure: as §1, §2

[11] = Cytotoxicity MTT assay, SK-OV-3; type: cell-based; details: human, SK-OV-3 cells
Procedure: as §1, §2

[12] = tested on: sheep blood; experiment: Hemolysis of sheep blood; type: cell-based; details: Ovis aries

## CN[C@H](CC(C)C)C(=O)N[C@H]1C(=O)N[C@@H](CC(N)=O)C(=O)N[C@H]2C(=O)N[C@H]3C(=O)N[C@H](C(=O)N[C@H](C(=O)O)c4cc(O)cc(O)c4-c4cc3ccc4O)[C@H](O)c3ccc(c(Cl)c3)Oc3cc2cc(c3O[C@@H]2O[C@H](CO)[C@@H](O)[C@H](O)[C@H]2O[C@H]2C[C@](C)(N)[C@H](O)[C@H](C)O2)Oc2ccc(cc2Cl)[C@H]1O [vancomycin, reference compound]
[1]
  MIC against C. difficile (reference antibiotic): 2.5 mg/L (≈ 1.73 µM)
[2]
  Inhibition of C. difficile spore germination: did not inhibit the spore germination

## CN(CCCN)[C@H](C(=O)O)[C@H](O[C@@H]1O[C@H](CN)[C@@H](O)[C@H]1O)[C@H]1O[C@@H](n2ccc(=O)[nH]c2=O)[C@H](O)[C@@H]1O [FR-900493 (1), FR-900493]
[1]
  C. difficile ATCC43596 MIC: >50 mg/L

## CC(=O)O[C@H]1C(=O)[C@@]2(C)[C@H]([C@H](OC(=O)c3ccccc3)[C@]3(O)C[C@H](OC(=O)[C@H](O)[C@@H](NC(=O)c4ccccc4)c4ccccc4)C(C)=C1C3(C)C)[C@]1(OC(C)=O)CO[C@@H]1C[C@@H]2O [Taxol, Paclitaxel, reference compound]
[3]
  IC50: 0.057 µM
[4]
  IC50: 0.79 µM
[5]
  IC50: 0.02 µM
[6]; AsPc-1 cells, Table 5
  IC50 A / IC50 B (drug alone): 0.55 µM
[6]; combined with 11
  lowest Taxol concentration to kill AsPc-1 cells when combined with 11: 7 nM
[7]
  IC50: 0.55 µM
[8]
  IC50: 0.11 µM
[9]
  IC50: 0.19 µM
[10]
  IC50: 0.02 µM
[11]
  IC50: 1.08 µM

## CC(=O)NC[C@H]1CN(c2ccc(N3CCOCC3)c(F)c2)C(=O)O1 [linezolid, reference compound]
[2]
  Inhibition of C. difficile spore germination: did not inhibit the spore germination

## CCCCCCCc1ccc(NC(=O)CCCN(C)[C@H](C(N)=O)[C@H](OC2O[C@H](CN)[C@@H](O)[C@H]2O)[C@H]2O[C@@H](n3ccc(=O)[nH]c3=O)C(O)[C@H]2O)cc1 (some centres unmarked) [Compound 9]
[1]
  anti-C. difficile growth inhibitory activity (in words): weak
[2]
  Viability of C. difficile spores: caused loss of viability

## Cc1ncc([N+](=O)[O-])n1CCO [metronidazole, reference compound]
[2]
  Inhibition of C. difficile spore germination: did not inhibit the spore germination

## CCCCCCCc1ccc(NC(=O)CCCN[C@H](C(N)=O)[C@H](OC2O[C@H](CN)[C@@H](O)[C@H]2O)[C@H]2O[C@@H](n3ccc(=O)[nH]c3=O)C(O)[C@H]2O)cc1 (some centres unmarked) [Compound 10]
[2]
  Viability of C. difficile spores: caused loss of viability
[12]
  IC50: 70 µM

## CN(CCCC(=O)NCc1ccc(N2CCC(Oc3ccc(C(F)(F)F)cc3)CC2)cc1)[C@H](C(N)=O)[C@H](O[C@@H]1O[C@H](CN)[C@@H](O)[C@H]1O)[C@H]1O[C@@H](n2ccc(=O)[nH]c2=O)[C@H](O)C1O (some centres unmarked) [Compound 12]
[1]
  anti-C. difficile growth inhibitory activity (in words): weak

## Nc1ccn([C@@H]2O[C@H](CO)[C@@H](O)C2(F)F)c(=O)n1 [Gemcitabine, reference compound]
[6]; AsPc-1 cells, Table 6
  IC50 A / IC50 B (drug alone): 0.39 µM
[6]; AsPc-1 cells, combination of 11 (A) and Gemcitabine (B), per entry
  CA and CB (concentrations of drugs A and B used in combination): 0.37 µM

## Tunicamycin
[1]
  C. difficile ATCC43596 MIC: >50 mg/L
